Test [1] deals with Tau aggregation. Nature of the test: cell-based tau aggregation assay (Rickard et al., 2017). The settings on record: tau aggregation inhibition.
Experimental: Selected or designed compounds may further be synthesised or obtained and tested for their ability to modulate Tau aggregation, for example in a cell-based aggregation assay as described in Rickard et al., 2017.
These compounds were assessed in a cell-based Tau aggregation assay. […] The substituents were designed to test the required strength of hydrogen bonds with the pocket, as well as optimal orientation for hydrophobic and pi interactions.
The target in test [2] is T1, dGAE (Homo sapiens, UniProt P10636).
T1 construct: Recombinant tau297-391 (dGAE) was produced and purified from; made in house; host or cells: E. coli
Nature of the test: sandwich ELISA epitope occlusion assay of dGAE aggregates with core region scAbs. Type of test: biochemical. The settings on record: dGAE with DTT, 1:5 ratio, 24 h at 37° C.; total and supernatant samples. The text has this:
The truncated core repeat domain dGAE (297-391), is the predominant fragment that constitutes bulk of the PHF core in AD (Wischik et al, 1988). During dGAE aggregation in vitro, scAb binding regions on dGAE are ‘hidden’ or ‘occluded’ which leads to a loss of immunoreactivity in aggregation samples. Here we have shown the occlusion of binding regions in aggregated dGAE samples and the recovery of immunoreactivity in the presence of LMTM, a tau-aggregation inhibitor. For preparing the aggregates, 10 μl 10 mM DTT was added to 1000 μl 100 μM dGAE and agitated with/without LMTM (1:5 ratio) at 700 rpm for 24 h at 37° C. Following overnight agitation, one third of each sample was kept aside as ‘total’ and the rest was spun down at 16000×g for 30 min and separated into ‘supernatant’ and ‘pellet’. The pellet was then resuspended in half the original volume for further experiments. The immunoreactivities of core region specific scAbs towards dGAE aggregates formed with/without LMTM was tested using a sandwich ELISA format using a ‘E’ specific monoclonal antibody 423 mAb. […] ELISA plates were coated with 10 μg/ml 423 mAb and blocked as normal. Doubling dilutions of dGAE aggregate ‘total’, ‘supernatant’ and ‘pellet’ samples at 10 μg/ml starting concentration were added to designated wells in doubling dilutions in 1×PBS. dGAE monomer (non-aggregated) was included as assay control. […]
(In an ELISA, binding on a coated surface is turned into a signal by an enzyme label.)

Test [3] deals with T1, dGAE. Nature of the test: protease digestion (Proteinase K / Pronase E) of assembled dGAE, SDS-PAGE. The settings on record: 100 μM dGAE, 10 mM DTT, ratios up to 1:5, 72 hours. Type of test: biochemical.
Experimental: Protease digestion: 100 μM dGAE with 10 mM DTT in phosphate buffer (20 mM, pH 7.4), with or without MTC at ratios up to 1:5 was agitated at 700 rpm, 37° C. for 72 hours. 10 μg aliquots were digested with increasing concentrations of Proteinase K (PK), Pronase E (PE), or left untreated. The digestion was carried out at 37° C. for 1 hour then the reaction was stopped with 1 mM Pefabloc and samples were placed on ice for 5 minutes. Sample buffer without any reducing agent was added, incubated for 5 minutes at room temperature then loaded onto a gel.
Soluble or fibrils of dGAE (100 μM) in reducing conditions (10 mM DTT) were incubated with increasing concentrations of proteinase K or Pronase E then samples were run on SDS-PAGE.
For test [4] the following is noted: clinical evidence; fold lower; cited from earlier work.

Each structure is given as a SMILES string. “Also recorded” adds a separate entry of the source.

Broadly, the EC50 is the concentration at which the effect is half-maximal.

T1 sequence (P10636 614-708): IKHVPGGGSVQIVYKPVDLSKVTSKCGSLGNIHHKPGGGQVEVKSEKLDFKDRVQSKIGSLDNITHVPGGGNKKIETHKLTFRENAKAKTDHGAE

As to `CN(C)c1ccc2c(c1)Sc1cc(N(C)C)ccc1N2` [LMT, leuco-methylthioninium], the EC50 in test [1] was 0.096 µM. Besides, the “immunoreactivity of core region scAbs to dGAE aggregated in presence of the compound” value in test [2] was “loss of immunoreactivity could be prevented”. Also, the “formation of protease resistant core of dGAE” value in test [3] is listed as “loss of protease resistance; also recorded: prevents the formation of a protease resistant core”.
With `CN(C)c1ccc2c(c1)Sc1cc(N(C)C)ccc1N2.CS(=O)(=O)O.CS(=O)(=O)O` [LMTM, hydromethylthioninium mesylate], the “immunoreactivity of core region scAbs to dGAE aggregated in presence of the compound” value in test [2] is “increase in immunoreactivity; also recorded: increased binding”. For the same compound, in test [4], the “effective dose relative to minimum effective dose of the oxidized MT+ form” value was 20 fold.

The record behind these values is patent US20230352114A1, “METHODS OF PROVIDING MODULATORS OF TAU AGGREGATION” (GTInvent Limited, priority 2020, published 2023).
